Source: ChEMBL document CHEMBL3632580, “Structure-activity relationship of indoloquinoline analogs anti-MRSA” (2015)
Values after ≈ are worked out from the molar mass of the structure shown.

What was measured:
Assay type in all cases: functional
Staphylococcus aureus [1] = test: Antibacterial activity against methicillin-resistant Staphylococcus aureus OM481
Staphylococcus aureus [2] = test: Antibacterial activity against methicillin-resistant Staphylococcus aureus OM584
P388 = test: Antitumor activity against mouse P388 cells implanted in CD2F1 mouse assessed as tumor growth inhibition at 6.25 mg/kg, ip relative to control

Clc1cccc(Nc2c3ccccc3nc3c2[nH]c2ccccc23)c1
MIC (Staphylococcus aureus [1]): 125 µg/mL (≈ 364 µM)
MIC (Staphylococcus aureus [2]): 125 µg/mL (≈ 364 µM)

COc1cccc(Nc2c3ccccc3nc3c2[nH]c2ccccc23)c1
MIC (Staphylococcus aureus [1]): > 250 µg/mL
MIC (Staphylococcus aureus [2]): > 250 µg/mL

Fc1ccc(Nc2c3ccccc3nc3c2[nH]c2ccccc23)cc1
MIC (Staphylococcus aureus [1]): 8 µg/mL (≈ 24.4 µM)
MIC (Staphylococcus aureus [2]): 8 µg/mL (≈ 24.4 µM)

Cl.Oc1ccccc1Nc1c2ccccc2nc2c1[nH]c1ccccc12
MIC (Staphylococcus aureus [1]): 16 µg/mL
MIC (Staphylococcus aureus [2]): 16 µg/mL

Clc1ccccc1Nc1c2ccccc2nc2c1[nH]c1ccccc12
MIC (Staphylococcus aureus [1]): 8 µg/mL (≈ 23.3 µM)
MIC (Staphylococcus aureus [2]): 4 µg/mL (≈ 11.6 µM)

Clc1ccc(Nc2c3ccccc3nc3c2[nH]c2ccccc23)cc1
MIC (Staphylococcus aureus [1]): 8 µg/mL (≈ 23.3 µM)
MIC (Staphylococcus aureus [2]): 4 µg/mL (≈ 11.6 µM)

CC(=O)Oc1ccc(Nc2c3ccccc3nc3c2[nH]c2ccccc23)cc1.Cl
MIC (Staphylococcus aureus [1]): 16 µg/mL
MIC (Staphylococcus aureus [2]): 8 µg/mL

Cc1ccc2[nH]c3c(Nc4ccc(O)cc4)c4ccccc4nc3c2c1
MIC (Staphylococcus aureus [1]): 4 µg/mL (≈ 11.8 µM)
MIC (Staphylococcus aureus [2]): 2 µg/mL (≈ 5.89 µM)

COc1ccc2[nH]c3c(Nc4ccc(O)cc4)c4ccccc4nc3c2c1
MIC (Staphylococcus aureus [1]): 2 µg/mL (≈ 5.63 µM)
MIC (Staphylococcus aureus [2]): 2 µg/mL (≈ 5.63 µM)

COc1cc(NS(C)(=O)=O)ccc1Nc1c2ccccc2nc2c1[nH]c1ccccc12
MIC (Staphylococcus aureus [1]): 8 µg/mL (≈ 18.5 µM)
MIC (Staphylococcus aureus [2]): 16 µg/mL (≈ 37 µM)
T/C (P388): 300%

Cn1c2ccccc2c2nc3ccccc3c(Nc3ccc(O)cc3)c21
MIC (Staphylococcus aureus [1]): 250 µg/mL (≈ 737 µM)
MIC (Staphylococcus aureus [2]): 8 µg/mL (≈ 23.6 µM)

Oc1ccc(Nc2c3ccccc3nc3c2[nH]c2ccc(Cl)cc23)cc1
MIC (Staphylococcus aureus [1]): 8 µg/mL (≈ 22.2 µM)
MIC (Staphylococcus aureus [2]): 4 µg/mL (≈ 11.1 µM)

c1ccc(Nc2c3ccccc3nc3c2[nH]c2ccccc23)cc1
MIC (Staphylococcus aureus [1]): 8 µg/mL (≈ 25.9 µM)
MIC (Staphylococcus aureus [2]): 4 µg/mL (≈ 12.9 µM)

Oc1ccc(Nc2c3ccccc3nc3c2oc2ccccc23)cc1
MIC (Staphylococcus aureus [1]): 2 µg/mL (≈ 6.13 µM)
MIC (Staphylococcus aureus [2]): 2 µg/mL (≈ 6.13 µM)

COc1ccc(Nc2c3ccccc3nc3c2[nH]c2ccccc23)cc1
MIC (Staphylococcus aureus [1]): 16 µg/mL (≈ 47.1 µM)
MIC (Staphylococcus aureus [2]): 8 µg/mL (≈ 23.6 µM)

Oc1ccc(Nc2c3c(nc4ccccc24)-c2ccccc2C3)cc1
MIC (Staphylococcus aureus [1]): 250 µg/mL (≈ 771 µM)
MIC (Staphylococcus aureus [2]): > 250 µg/mL

O=[N+]([O-])c1ccc(Nc2c3ccccc3nc3c2[nH]c2ccccc23)cc1
MIC (Staphylococcus aureus [1]): > 250 µg/mL
MIC (Staphylococcus aureus [2]): > 250 µg/mL

COc1cc(O)ccc1Nc1c2ccccc2nc2c1[nH]c1ccccc12
MIC (Staphylococcus aureus [1]): 8 µg/mL (≈ 22.5 µM)
MIC (Staphylococcus aureus [2]): 16 µg/mL (≈ 45 µM)

Cl.Oc1ccc(Nc2c3ccccc3nc3ccccc23)cc1
MIC (Staphylococcus aureus [1]): 250 µg/mL
MIC (Staphylococcus aureus [2]): > 250 µg/mL

Oc1ccc(Nc2c3ccccc3nc3c2[nH]c2ccccc23)cc1
MIC (Staphylococcus aureus [1]): 4 µg/mL (≈ 12.3 µM)
MIC (Staphylococcus aureus [2]): 2 µg/mL (≈ 6.15 µM)

Oc1cccc(Nc2c3ccccc3nc3c2[nH]c2ccccc23)c1
MIC (Staphylococcus aureus [1]): 16 µg/mL (≈ 49.2 µM)
MIC (Staphylococcus aureus [2]): 8 µg/mL (≈ 24.6 µM)

CC1c2ccccc2-c2nc3ccccc3c(Nc3ccc(O)cc3)c21 (stereo unspecified)
MIC (Staphylococcus aureus [1]): 16 µg/mL (≈ 47.3 µM)
MIC (Staphylococcus aureus [2]): 4 µg/mL (≈ 11.8 µM)

COc1ccccc1Nc1c2ccccc2nc2c1[nH]c1ccccc12
MIC (Staphylococcus aureus [1]): > 250 µg/mL
MIC (Staphylococcus aureus [2]): > 250 µg/mL

Cc1ccc(Nc2c3ccccc3nc3c2[nH]c2ccccc23)cc1
MIC (Staphylococcus aureus [1]): 62.5 µg/mL (≈ 193 µM)
MIC (Staphylococcus aureus [2]): 62.5 µg/mL (≈ 193 µM)

CN(c1ccc(O)cc1)c1c2ccccc2nc2c1[nH]c1ccccc12
MIC (Staphylococcus aureus [1]): > 250 µg/mL
MIC (Staphylococcus aureus [2]): > 250 µg/mL
